{"source": "patent US12570638B2", "about": "“Fused imidazole derivatives as AHR antagonists” (Sail Biomedicines, Inc., priority 2020, dated 2026)", "key": {"[1]": {"experiment": "Solubility Determination Assay (PBS, LC-MS/MS)", "format": "physicochemical", "conditions": "aqueous buffer, kinetic from dmso stock", "method": "The stock solutions of test compounds and control compound progesterone were prepared in DMSO at the concentrations of 10 mM. 15 μL of stock solution (10 mM) of each sample was placed in order into their proper 96-well rack. 485 μL of PBS pH 1.6 and pH 7.4 were added into each vial of the cap-less Solubility Sample plate. The assay was performed in singlet. One stir stick was added to each vial and then the vial was sealed using a molded PTFE/Silicone plug. […] After completion of the 2 hours, plugs were removed and the stir sticks were removed using a big magnet. The samples from the Solubility Sample plate were transferred into the filter plate. Using the Vacuum Manifold, all the samples were filtered. An aliquot of 5 μL was taken from the filtrate followed by addition of 495 μL of a mixture of H2O and acetonitrile containing internal standard (1:1). A certain proportion of ultrapure water was used to dilute the diluent according to the peak shape. The dilution factor was changed according to the solubility values and the LC-MS signal response.\nFrom the 10 mM DMSO STD plate, 6 μL was transferred into the remaining empty plate, and then 194 μL of DMSO were added to that plate to have a STD concentration of 300 μM. From the 300 μM DMSO STD plate, 5 μL were transferred into the remaining empty plate, and then 495 μL of a mixture of H2O and acetonitrile containing internal standard (1:1) were added to that plate to have a final STD concentration of 3 μM. A certain proportion of ultrapure water was used to dilute the diluent according to the peak shape. The concentrations of the standard samples were changed according to the LC-MS signal response.\nThe plate was placed into the well plate autosampler. The samples were evaluated by LC-MS/MS analysis.\nAll calculations were carried out using Microsoft Excel.\nThe filtrate was analyzed and quantified against a standard of known concentration using LC coupled with mass spectral peak identification and quantitation. Solubility values of the test compound and control compound were calculated as follows: […]\nAny value of the compounds that was not within the specified limits was rejected and the experiment was repeated.\n“+++” indicates a solubility value equal to or greater than 10 μM, “++” indicates a solubility value between 1 and 10 μM, and “+” indicates a solubility value less than 1 μM."}, "[2]": {"experiment": "Liver Microsome Stability Assay, human", "format": "in vitro ADME", "conditions": "human liver microsomes, with NADPH, 1 μM compound, read-out: Human liver microsome clearance", "method": "The master solution was prepared according to Table 6.\nTwo separate experiments were performed as follows.\nWith Cofactors (NADPH): 25 μL of 10 mM NADPH was added to the incubations. The final concentrations of microsomes and NADPH were 0.5 mg/mL and 1 mM, respectively. The final concentration of microsomes was 0.5 mg/mL. The mixture was pre-warmed at 37° C. for 10 minutes. The reaction was started with the addition of 2.5 μL of 100 μM control compound or test compound solutions. Verapamil was used as positive control in this study. The final concentration of test compound or control compound was 1 μM. The incubation solution was incubated in water batch at 37° C. Aliquots of 25 μL were taken from the reaction solution at 0.5, 5, 15, 30 and 60 minutes. The reaction was stopped by the addition of 5 volumes of cold acetonitrile with IS (200 nM caffeine and 100 nM tolbutamide). Samples were centrifuged at 3, 220 g for 40 minutes. Aliquot of 100 μL of the supernatant was mixed with 100 μL of ultra-pure H2O and then used for LC-MS/MS analysis.\nData Analysis: All calculations were carried out using Microsoft Excel. Peak areas were determined from extracted ion chromatograms. The slope value, k, was determined by linear regression of the natural logarithm of the remaining percentage of the parent drug vs. incubation time curve.\nThe in vitro half-life (in vitro t1/2) was determined from the slope value: in vitro t1/2=−([…]/k)\nConversion of the in vitro t1/2 (min) into the in vitro intrinsic clearance (in vitro CLint, in μL/min/mg protein) was done using the following equation (mean of duplicate determinations):\nThe calculations of Scaled-up CLint (mL/min/kg), Predicted CLH (mL/min/kg) and EH were done using the following equation: Scaled-up CLint=(0.693/t1/2)×(1/(microsomal protein concentration(0.5 mg/mL)))×Scaling Factors; Predicted CLH=(QH×Scaled-up CLint×fub)/(QH+Scaled-up CLint×fub); EH=Predicted CLH/QH • where QH is the hepatic blood flow (mL/min/kg) (Table 7), • fub is the fraction of unbound drug in plasma which is assumed to be 1. […]"}, "[3]": {"conditions": "PBS pH 1.6, 25° C., read-out: Aq. Solubility at pH = 1.6"}, "[4]": {"conditions": "PBS pH 7.4, 25° C., read-out: Aq. Solubility at pH = 7.4"}}, "note": "Read-outs that look alike come from different tables or passages of the source."}
{"smiles": "Cn1nccc1C(=O)Nc1ccc2nc(-c3ccccc3C(F)(F)F)[nH]c2c1", "note": "[A, 1-methyl-N-(2-(2-(trifluoromethyl)phenyl)-1H-benzo[d]imidazol-6-yl)-1H-pyrazole-5-carboxamide]", "values": [{"measurement": "solubility at 2 h", "setting": "[1]; [3]", "value": "> 10", "unit": "µM"}, {"measurement": "solubility at 2 h", "setting": "[1]; [4]", "value": "> 10", "unit": "µM"}, {"measurement": "CLint scaled at 1 μM", "setting": "[2]", "value": "< 10", "unit": "mL/min/kg"}]}
{"smiles": "Cn1ncnc1C(=O)Nc1ccc2nc(-c3ccccc3C(F)(F)F)[nH]c2c1", "note": "[Compound H, 1-methyl-N-(2-(2-(trifluoromethyl)phenyl)-1H-benzo[d]imidazol-6-yl)-1H-1,2,4-triazole-5-carboxamide]", "values": [{"measurement": "solubility at 2 h", "setting": "[1]; [3]", "value": "> 10", "unit": "µM"}, {"measurement": "solubility at 2 h", "setting": "[1]; [4]", "value": "1 to 10", "unit": "µM"}, {"measurement": "CLint scaled at 1 μM", "setting": "[2]", "value": "< 10", "unit": "mL/min/kg"}]}
